# Earlier results as cited in patent US11571429B2, “Method and compounds for treating peripheral neuropathy” (UPEXMED CO. LTD., priority 2017, dated 2023).
# Test system: diabetic neuropathy pain
# Conditions: taken orally
smiles,measurement,value
"CN(C)CCC=C1c2ccccc2CCc2ccccc21 [Amitriptyline, amitriptyline]",NNT; number of patients needed to treat for at least 50% pain relief,1.3
